# Test results reported in ChEMBL document CHEMBL4325853, “Design, synthesis and antibacterial evaluation of 2,4-disubstituted-6-thiophenyl-pyrimidines” (Eur J Med Chem, 2019).
# Tests used:
# Format in all cases: functional
# Staphylococcus aureus [1] = experiment: Antibacterial activity against methicillin-resistant Staphylococcus aureus isolate 3170 after 18 hrs by broth microdilution method; conditions: isolate 3170, 18 h
# Staphylococcus aureus [2] = experiment: Antibacterial activity against methicillin-resistant Staphylococcus aureus isolate 4023 after 18 hrs by broth microdilution method; conditions: isolate 4023, 18 h
# Staphylococcus aureus [3] = experiment: Antibacterial activity against methicillin-resistant Staphylococcus aureus isolate 8078 after 18 hrs by broth microdilution method; conditions: isolate 8078, 18 h
# Staphylococcus aureus [4] = experiment: Antibacterial activity against methicillin-resistant Staphylococcus aureus isolate 8162 after 18 hrs by broth microdilution method; conditions: isolate 8162, 18 h
# Staphylococcus aureus [5] = experiment: Antibacterial activity against methicillin-resistant Staphylococcus aureus isolate 5395 after 18 hrs by broth microdilution method; conditions: isolate 5395, 18 h
# Staphylococcus aureus [6] = experiment: Antibacterial activity against methicillin-resistant Staphylococcus aureus isolate 1428 after 18 hrs by broth microdilution method; conditions: isolate 1428, 18 h
# Staphylococcus aureus [7] = experiment: Antibacterial activity against methicillin-resistant Staphylococcus aureus isolate 1651 after 18 hrs by broth microdilution method; conditions: isolate 1651, 18 h
# Staphylococcus aureus [8] = experiment: Antibacterial activity against methicillin-resistant Staphylococcus aureus isolate 7587 after 18 hrs by broth microdilution method; conditions: isolate 7587, 18 h
# Enterococcus faecalis [9] = experiment: Antibacterial activity against vancomycin-resistant Enterococcus faecalis ATCC 700221 after 18 hrs by broth microdilution method; conditions: ATCC 700221, 18 h
# Staphylococcus aureus [10] = experiment: Ratio of MBC to MIC for methicillin-resistant Staphylococcus aureus ATCC BAA41
# Staphylococcus aureus [11] = experiment: Antibacterial activity against methicillin-resistant Staphylococcus aureus isolate 2158 after 18 hrs by broth microdilution method; conditions: isolate 2158, 18 h
# Staphylococcus aureus [12] = experiment: Bactericidal activity against methicillin-resistant Staphylococcus aureus ATCC BAA41 after 18 hrs by broth microdilution method; conditions: ATCC BAA41, 18 h
# Staphylococcus aureus [13] = experiment: Antibacterial activity against methicillin-resistant Staphylococcus aureus isolate 5426 after 18 hrs by broth microdilution method; conditions: isolate 5426, 18 h
# Staphylococcus aureus [14] = experiment: Antibacterial activity against methicillin-resistant Staphylococcus aureus isolate 8071 after 18 hrs by broth microdilution method; conditions: isolate 8071, 18 h
# Staphylococcus aureus [15] = experiment: Antibacterial activity against methicillin-resistant Staphylococcus aureus isolate 5035 after 18 hrs by broth microdilution method; conditions: isolate 5035, 18 h
# Staphylococcus aureus [16] = experiment: Antibacterial activity against methicillin-resistant Staphylococcus aureus isolate 7916 after 18 hrs by broth microdilution method; conditions: isolate 7916, 18 h
# Staphylococcus aureus [17] = experiment: Antibacterial activity against methicillin-resistant Staphylococcus aureus isolate 2671 after 18 hrs by broth microdilution method; conditions: isolate 2671, 18 h
# Staphylococcus aureus [18] = experiment: Potency index, ratio of berberine MIC to test compound MIC for Staphylococcus aureus ATCC 29213
# Staphylococcus aureus [19] = experiment: Antibacterial activity against methicillin-resistant Staphylococcus aureus isolate 6515 after 18 hrs by broth microdilution method; conditions: isolate 6515, 18 h
# Staphylococcus aureus [20] = experiment: Antibacterial activity against methicillin-resistant Staphylococcus aureus isolate 6334 after 18 hrs by broth microdilution method; conditions: isolate 6334, 18 h
# Enterococcus faecalis [21] = experiment: Ratio of MBC to MIC for vancomycin-resistant Enterococcus faecalis ATCC 700221
# [22] = tested on: Staphylococcus epidermidis; experiment: Antibacterial activity against Staphylococcus epidermidis ATCC 12228 after 18 hrs by broth microdilution method; conditions: ATCC 12228, 18 h
# Staphylococcus aureus [23] = experiment: Antibacterial activity against methicillin-resistant Staphylococcus aureus isolate 1708 after 18 hrs by broth microdilution method; conditions: isolate 1708, 18 h
# Staphylococcus aureus [24] = experiment: Potency index, ratio of methicillin MIC to test compound MIC for methicillin-resistant Staphylococcus aureus ATCC 43300
# Staphylococcus aureus [25] = experiment: Antibacterial activity against methicillin-resistant Staphylococcus aureus isolate 1947 after 18 hrs by broth microdilution method; conditions: isolate 1947, 18 h
# Enterococcus faecalis [26] = experiment: Antibacterial activity against Enterococcus faecalis ATCC 29212 after 18 hrs by broth microdilution method; conditions: ATCC 29212, 18 h
# Staphylococcus aureus [27] = experiment: Potency index, ratio of methicillin MIC to test compound MIC for methicillin-resistant Staphylococcus aureus ATCC BAA1720
# Staphylococcus aureus [28] = experiment: Antibacterial activity against methicillin-resistant Staphylococcus aureus isolate 4127 after 18 hrs by broth microdilution method; conditions: isolate 4127, 18 h
# Staphylococcus aureus [29] = experiment: Antibacterial activity against methicillin-resistant Staphylococcus aureus isolate 7943 after 18 hrs by broth microdilution method; conditions: isolate 7943, 18 h
# Staphylococcus aureus [30] = experiment: Antibacterial activity against methicillin-resistant Staphylococcus aureus isolate 7960 after 18 hrs by broth microdilution method; conditions: isolate 7960, 18 h
# Staphylococcus aureus [31] = experiment: Antibacterial activity against methicillin-resistant Staphylococcus aureus ATCC 33591 after 18 hrs by broth microdilution method; conditions: ATCC 33591, 18 h
# Staphylococcus aureus [32] = experiment: Antibacterial activity against methicillin-resistant Staphylococcus aureus isolate 7972 after 18 hrs by broth microdilution method; conditions: isolate 7972, 18 h
# Staphylococcus aureus [33] = experiment: Antibacterial activity against methicillin-resistant Staphylococcus aureus isolate 7717 after 18 hrs by broth microdilution method; conditions: isolate 7717, 18 h
# Staphylococcus aureus [34] = experiment: Antibacterial activity against methicillin-resistant Staphylococcus aureus isolate 7247 after 18 hrs by broth microdilution method; conditions: isolate 7247, 18 h
# Staphylococcus aureus [35] = experiment: Antibacterial activity against methicillin-resistant Staphylococcus aureus isolate 7536 after 18 hrs by broth microdilution method; conditions: isolate 7536, 18 h
# Staphylococcus aureus [36] = experiment: Antibacterial activity against methicillin-resistant Staphylococcus aureus isolate 7971 after 18 hrs by broth microdilution method; conditions: isolate 7971, 18 h
# Staphylococcus aureus [37] = experiment: Potency index, ratio of methicillin MIC to test compound MIC for methicillin-resistant Staphylococcus aureus ATCC BAA41
# Staphylococcus aureus [38] = experiment: Antibacterial activity against methicillin-resistant Staphylococcus aureus ATCC 33592 after 18 hrs by broth microdilution method; conditions: ATCC 33592, 18 h
# Staphylococcus aureus [39] = experiment: Potency index, ratio of methicillin MIC to test compound MIC for methicillin-resistant Staphylococcus aureus ATCC 33591
# Staphylococcus aureus [40] = experiment: Antibacterial activity against methicillin-resistant Staphylococcus aureus isolate 7449 after 18 hrs by broth microdilution method; conditions: isolate 7449, 18 h
# Staphylococcus aureus [41] = experiment: Antibacterial activity against methicillin-resistant Staphylococcus aureus isolate 7434 after 18 hrs by broth microdilution method; conditions: isolate 7434, 18 h
# Staphylococcus aureus [42] = experiment: Antibacterial activity against methicillin-resistant Staphylococcus aureus isolate 1610 after 18 hrs by broth microdilution method; conditions: isolate 1610, 18 h
# Staphylococcus aureus [43] = experiment: Antibacterial activity against methicillin-resistant Staphylococcus aureus isolate 7682 after 18 hrs by broth microdilution method; conditions: isolate 7682, 18 h
# Staphylococcus aureus [44] = experiment: Antibacterial activity against methicillin-resistant Staphylococcus aureus ATCC BAA41 after 18 hrs by broth microdilution method; conditions: ATCC BAA41, 18 h
# Staphylococcus aureus [45] = experiment: Antibacterial activity against methicillin-resistant Staphylococcus aureus isolate 3096 after 18 hrs by broth microdilution method; conditions: isolate 3096, 18 h
# Escherichia coli = experiment: Antibacterial activity against Escherichia coli ATCC 25922 after 18 hrs by broth microdilution method; conditions: ATCC 25922, 18 h
# Staphylococcus aureus [46] = experiment: Bactericidal activity against methicillin-resistant Staphylococcus aureus ATCC 43300 after 18 hrs by broth microdilution method; conditions: ATCC 43300, 18 h
smiles,measurement,setting,value
CC(C)(C)c1ccc(CN2CCCN(CCc3cc(-c4cccs4)nc(-c4ccncc4)n3)CC2)cc1,MIC90,Staphylococcus aureus [1],2 µg/mL
same,MIC90,Staphylococcus aureus [2],2 µg/mL
same,MIC90,Staphylococcus aureus [3],2 µg/mL
same,MIC90,Staphylococcus aureus [4],2 µg/mL
same,MIC90,Staphylococcus aureus [5],2 µg/mL
same,MIC90,Staphylococcus aureus [6],2 µg/mL
same,MIC90,Staphylococcus aureus [7],2 µg/mL
same,MIC90,Staphylococcus aureus [8],2 µg/mL
same,MIC90,Enterococcus faecalis [9],4 µg/mL
same,Ratio,Staphylococcus aureus [10],1
same,MIC90,Staphylococcus aureus [11],2 µg/mL
same,MBC,Staphylococcus aureus [12],2 µg/mL
same,MIC90,Staphylococcus aureus [13],2 µg/mL
same,MIC90,Staphylococcus aureus [14],2 µg/mL
same,MIC90,Staphylococcus aureus [15],2 µg/mL
same,MIC90,Staphylococcus aureus [16],2 µg/mL
same,MIC90,Staphylococcus aureus [17],2 µg/mL
same,Ratio,Staphylococcus aureus [18],50 - 100
same,MIC90,Staphylococcus aureus [19],4 µg/mL
same,MIC90,Staphylococcus aureus [20],2 µg/mL
same,Ratio,Enterococcus faecalis [21],1
same,MIC90,[22],2 µg/mL
same,MIC90,Staphylococcus aureus [23],4 µg/mL
same,Ratio,Staphylococcus aureus [24],>100
same,MIC90,Staphylococcus aureus [25],2 µg/mL
same,MIC90,Enterococcus faecalis [26],2 µg/mL
same,Ratio,Staphylococcus aureus [27],>100
same,MIC90,Staphylococcus aureus [28],2 µg/mL
same,MIC90,Staphylococcus aureus [29],2 µg/mL
same,MIC90,Staphylococcus aureus [30],2 µg/mL
same,MIC90,Staphylococcus aureus [31],2 µg/mL
same,MIC90,Staphylococcus aureus [32],2 µg/mL
same,MIC90,Staphylococcus aureus [33],2 µg/mL
same,MIC90,Staphylococcus aureus [34],2 µg/mL
same,MIC90,Staphylococcus aureus [35],2 µg/mL
same,MIC90,Staphylococcus aureus [36],2 µg/mL
same,Ratio,Staphylococcus aureus [37],>100
same,MIC90,Staphylococcus aureus [38],2 µg/mL
same,Ratio,Staphylococcus aureus [39],>100
same,MIC90,Staphylococcus aureus [40],2 µg/mL
same,MIC90,Staphylococcus aureus [41],2 µg/mL
same,MIC90,Staphylococcus aureus [42],4 µg/mL
same,MIC90,Staphylococcus aureus [43],4 µg/mL
same,MIC90,Staphylococcus aureus [44],2 µg/mL
same,MIC90,Staphylococcus aureus [45],2 µg/mL
same,MIC90,Escherichia coli,128 µg/mL
same,MBC,Staphylococcus aureus [46],4 µg/mL
